Assay results taken from PubChem BioAssay (NCI).
Values joined by “and” are separate entries in the source; they are usually repeats but may differ in a detail not shown here. Equal values may be shown once.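 Compound exposure: 48 hours, 5 concentrations, 96-well plates. At the GI50, growth is halved. TGI denotes the concentration required for complete inhibition of growth.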

Key:
Assay in all cases: NCI tumour cell line growth inhibition, 48 h
[1] = test system: KM12 colon
[2] = test system: BT-549 breast
[3] = test system: NCI/ADR-RES ovarian
[4] = test system: DU-145 prostate
[5] = test system: MDA-MB-435
[6] = test system: MDA-MB-231 breast
[7] = test system: CAKI-1 renal
[8] = test system: MOLT-4 leukemia
[9] = test system: UACC-257 melanoma
[10] = test system: SF-539 CNS

Structure (SMILES) | GI50 [1] | TGI [1] | GI50 [2] | TGI [2] | GI50 [3] | TGI [3] | GI50 [4] | TGI [4] | GI50 [5] | TGI [5] | GI50 [6] | TGI [6] | GI50 [7] | TGI [7] | GI50 [8] | TGI [8] | GI50 [9] | TGI [9] | GI50 [10] | TGI [10]
CS(=O)(=O)CCNCc1ccoc1-c1ccc2ncnc(Nc3ccc(OCc4ccccc4)cc3)c2c1 | > 25 µM | > 25 µM | > 25 µM | > 25 µM | > 25 µM | > 25 µM | > 25 µM | > 25 µM | > 25 µM | > 25 µM | > 25 µM | > 25 µM | 1.78 µM | > 25 µM | 20.1 µM | > 25 µM | > 25 µM | > 25 µM | > 25 µM | > 25 µM
COc1ccc(F)cc1-c1ccnc2[nH]c(C3=CCN(C4CCC(CC(=O)O)CC4)CC3)cc12 (stereo unspecified) | 0.0953 µM | > 100 µM | 0.156 µM | 0.903 µM | 2.15 µM | > 100 µM | 0.346 µM | > 100 µM | 0.221 µM | 1.05 µM | 0.205 µM |  | 0.434 µM | > 100 µM | 0.218 µM | > 100 µM | 0.307 µM | > 100 µM | 0.0546 µM | 0.335 µM
O=C(N/N=C/c1ccc(N(CCCl)CCCl)cc1)c1ccc(C(=O)N/N=C/c2ccc(N(CCCl)CCCl)cc2)cc1 | 15.8 µM | > 100 µM | 2.34 µM | 76.5 µM | > 100 µM | > 100 µM | 0.341 µM | > 100 µM | 29.8 µM | > 100 µM | 4.73 µM | > 100 µM | 72.3 µM | > 100 µM | 0.226 µM | > 100 µM | > 100 µM | > 100 µM | 0.612 µM | 47.3 µM
CCC(C)N1CN(c2ccccc2)C2(CCN(CCCC3(c4ccc(F)cc4)OCCO3)CC2)C1=O (stereo unspecified) |  | > 50.6 µM |  | 5.82 µM |  | 27.6 µM |  | > 57.3 µM |  | 45.6 µM |  | 26.2 µM |  | > 68.3 µM |  | 19.5 µM |  | 4.24 µM |  | 10.1 µM
Cc1cc2nc(-c3ccc(O)c(O)c3)n(Cc3ccc(O)c(O)c3)c2cc1C | 23.5 µM | > 100 µM | 28.9 µM | > 100 µM | > 100 µM | > 100 µM | 40.7 µM | > 100 µM | 16 µM | > 100 µM | 24.1 µM | 77.3 µM | 17 µM | 81.1 µM | 4.4 µM | 28.6 µM | 36 µM | 95.9 µM | 19.7 µM | > 100 µM
N=C1C=C(N)C(=O)c2ccccc21 | 0.322 µM | 1.26 µM | 0.452 µM | 0.929 µM | 0.296 µM | 1.01 µM | 0.191 µM | 0.345 µM | 0.163 µM | 0.31 µM | 0.18 µM | 0.554 µM | 0.187 µM | 0.379 µM | 0.215 µM | 0.558 µM | 0.161 µM | 0.306 µM | 0.181 µM | 0.347 µM
CC[C@@H](C(=O)[C@@H](C)[C@@H](O)[C@H](C)[C@@H]1O[C@@H]([C@@H](CC)C(=O)O)CC[C@@H]1C)[C@H]1O[C@]2(C=C[C@@H](O)[C@]3(CC[C@@](C)([C@H]4CC[C@](O)(CC)[C@H](C)O4)O3)O2)[C@H](C)C[C@@H]1C | 1.18 µM | 15.7 µM | 0.248 µM | 4.33 µM | 1.32 µM | 51.4 µM | 1.71 µM | 28.5 µM | 1.08 µM | 2.72 µM | 0.732 µM | 7.68 µM | 1.61 µM | 44.2 µM | 0.911 µM | 5.17 µM | 0.461 µM | 6.79 µM | 0.806 µM | 5.27 µM
CCOc1ccccc1N=Cc1c2ccccc2cc2ccccc12 |  | 49.3 µM |  | 70.1 µM |  | > 66.1 µM |  | 58.4 µM |  | 56 µM |  | 67.4 µM |  | > 92.4 µM |  | 53.3 µM |  | > 74.4 µM |  | > 71.4 µM
CSc1nc2ccc(C)cc2cc1/C=C1/C=C(c2ccccc2)NC1=O | 3.13 µM | 82.9 µM | 3.94 µM | 22.9 µM | 3.99 µM | 87.5 µM | 6.72 µM | 96.1 µM | 0.718 µM | 21 µM | 4.42 µM | 36.6 µM | 1.21 µM | 10.9 µM | 15.5 µM | > 100 µM | 94.6 µM | > 100 µM | 2.35 µM | 9.66 µM
O=C1CC2OCC=C3CN4CCC5(C(=O)O)C(N1)C2C3CC45 (stereo unspecified) |  | > 100 µM |  | > 100 µM |  | > 100 µM |  | > 100 µM |  | > 100 µM |  | > 100 µM |  | > 100 µM |  | > 100 µM |  | > 100 µM |  | > 100 µM
CCCCCCCCc1cc(O)ccc1O | 21.4 µM | 51.6 µM | 10.9 µM | 23.3 µM | 19.3 µM | 56.2 µM | 21.9 µM | 52.5 µM | 19.5 µM | 49.7 µM | 13 µM | 27.3 µM | 21.3 µM | 90 µM | 17.3 µM | 72.8 µM | 18.6 µM | 56.7 µM | 15.4 µM | 28.8 µM
COC(=O)Nc1nc2ccc(C(=O)c3cccs3)cc2[nH]1 | 0.0541 µM | 41 µM and > 100 µM |  | 4.33 µM | 0.0388 µM and 0.0664 µM | > 100 µM |  | 1.5 µM | 0.029 µM | 0.158 µM and 0.102 µM | 0.595 µM | 79.2 µM and > 100 µM | 0.232 µM | 56.3 µM and > 100 µM | 0.269 µM | 13 µM and > 100 µM | > 100 µM | > 100 µM | 0.0259 µM and 0.21 µM | 
C[C@@H]1Cc2c(ccc3[nH]ncc23)[C@@H](c2ccc(NC3CN(CCCF)C3)cn2)N1CC(F)(F)F | 31.3 µM | > 100 µM | 16 µM | 37.2 µM | 32.3 µM | > 100 µM | 35.2 µM | > 100 µM | 17.2 µM | 34.8 µM | 17 µM | 34.5 µM | 15.9 µM | 37.1 µM | 19.6 µM | > 100 µM | 17.9 µM | 38.3 µM | 16.9 µM | 32.5 µM
